In data set [1] the test system is oropharynx. Nature of the data set: Sensory effects and cold discomfort of compounds given orally in ODT (general evaluation). The data set is classed as in vivo, human. The following applies: for distribution of the sensation (throat vs chest): oral ODT. On the procedure: The correlation between a chemical's potency at the TRPM8 receptor (measured by the EC50 μM) and potency to evoke sensory events in the oropharynx is complex.
When a test compound is applied to non-keratinizng bodily surfaces (e.g., oropharyngeal surface), it is possible to characterize the resulting sensations.
The sensations are akin to rapid drinking of cold water mixed and equilibrated with ice chips. The intense cold is further accentuated if the drink is acidified, for example, with lemonade. The sensations of dull and intense cold on the surface of the oropharynx can be described as painful, uncomfortable, and aversive. The term “icy cold” is used to describe these adverse intense cold sensations.
Together, these three types of sensations—“icy cold”, coldness in the chest, and systemic coldness—is termed “cold discomfort”. […] The ideal agent must have a circumscribed site of action, and the intensity of the sensation should not cause “icy cold”, coldness in the chest, or systemic chills.

Data set [2] deals with Strains TA 98 and TA100. The data set is described as follows: Ames test. The data set is classed as cell-based. To be noted: Strains TA 98 and TA100, with and without liver activation. On the procedure:
Preliminary toxicological studies were conducted on DAPA-2-5 and DAPA-2-7.
A general note: The Ames test uses bacterial strains that need an amino acid and regain growth without it when mutated back.

Data set [3] in a line: Repeated-dose toxicity in male rats (organ weights, histology). The data set is classed as in vivo, rat. The protocol:
DAPA-2-7, dissolved in 3% ethanol/97% 1,2-propanediol, or vehicle alone, was administered subcutaneously to male rats (N=8 per group) at 30 mg/kg body weight daily for 7 days, and on the 8th day, the animals were euthanized with sodium pentobarbital and the major organs (body, heart, liver, lungs, kidney, testes, brain) were removed and weighed. Heart tissues (ventricle and heart valves) and liver samples were stained with hematoxylin and eosin and the histology examined.
In a large scale trial, DAPA-2-5 was administered via drinking water to male rats for 40 days. The DAPA-2-5 was mixed with condensed milk [8.5%] at 0.5 mg/mL and liquid consumption was monitored. The averaged intake in the treated group [N=12 rats] was 41 mg/kg body weight/day for 40 days. The vehicle alone group was N=11.

In data set [4] the test system is throat, airway and chest discomfort. The data set is described as follows: Case studies with DAPA-2-5 tablets in human subjects. Format: in vivo. The following applies: for precipitation of “ice cream headache” (Case Study 5): ODT-A 2 mg.
Data set [5] can be described thus: HPLC content of DAPA-2-5 recovered from disintegrated prototype tablets. Format: physicochemical. On the procedure: A high pressure liquid chromatography [HPLC] method was developed for analysis of DAPA-2-5 in aqueous solution. The chromatographic conditions were: Column: Waters XTerra RP18, 150×4.6 mm, 3.5 μm, Column temperature: 40° C., Mobile phase : 0.1% Tetrabutyl ammonium and Tri fluro acetic acid in 900mL water and 100 mL Acetonitrile, Flow: 1.0 mUmin, Diluent : Water, Wavelength: 226 nm, Injection Volume: 100 μL, Run time: 10 min, Standard Preparation: 0.75 mg/mL of DAPA-2-5 in water. Sample Preparation: Equivalent to 0.75 mg/mL of DAPA-2-5 in water. Prototype tablets containing DAPA-2-5 were disintegrated and the content of DAPA-2-5 measured. […] It is likely that the non-eluted DAPA-2-5 remains tightly bound to sites on the Neusilin US2.

The test system of data set [6] is mouth and throat. Nature of the data set: Sensory activity of ODT-C on volunteers (double-blind, modified ASHRAE scale). The following applies: doses higher than 1.5 mg. The data set is classed as in vivo, human.
Data set [7] deals with capsaicin-induced cough. Nature of the data set: Guinea pig cough model, capsaicin mist. The data set is classed as in vivo. The following applies: capsaicin 0.1 mM mist, identical design. On the procedure: This study was repeated with an identical design, but using capsaicin 0.1 mM mist as the stimulus.
The test system of data set [8] is isolated TRPM8 knock-out mouse vagus. Nature of the data set: Capsaicin-induced depolarization of isolated vagus nerve, TRPM8 knock-out. To be noted: 1 mg/mL, capsaicin 1 μM, TRPM8 KO, read-out: per cent inhibition of capsaicin-induced depolarization. On the procedure: To examine the ability of DAPA-2-5 to suppress sensory discomfort, it was tested in an animal model developed at the Imperial College, London, U.K. [Birrell et al. TRPA1 agonists evoke coughing in guinea pig and human volunteers. Amer. J. Respiratory and Critical Care Medicine 180, 1042-7, 2009; Patel et al., Inhibition of guinea-pig and human sensory nerve activity and the cough reflex in guinea-pigs by cannabinoid (CB2) receptor activation. British J. Pharmacol. 140, 261-8 2003]. In this in vitro assay, segments of the vagus nerve are placed on a platform and the electrical activity is recorded after topical application of capsaicin. Capsaicin is a known irritant that elicits pain when it is applied to the skin and it will depolarize the isolated vagus. The ability of substances to inhibit this capsaicin-induced depolarization is measured.
Briefly, segments of vagus nerve, caudal to the nodose ganglion, were removed from mice with fine forceps and segments placed in oxygenated Krebs solution and bubbled with 95% O2/5% CO2. The desheathed nerve trunk was mounted in a ‘grease-gap’ recording chamber and constantly superfused with Krebs solution with a flow rate of approximately 2 mL/min, and the electrical activity of the nerve monitored with electrodes. The temperature of the perfusate was kept constant at 37° C. by a water bath. […]

The target in data set [9] is T1, TRPV1 channels (human TRPV1 gene expressed in HEK293 cells) (Homo sapiens, UniProt Q8NER1).
T1 construct: expressed in transfected cells; host or cells: HEK293 cells
T1 sequence (Q8NER1 whole entry): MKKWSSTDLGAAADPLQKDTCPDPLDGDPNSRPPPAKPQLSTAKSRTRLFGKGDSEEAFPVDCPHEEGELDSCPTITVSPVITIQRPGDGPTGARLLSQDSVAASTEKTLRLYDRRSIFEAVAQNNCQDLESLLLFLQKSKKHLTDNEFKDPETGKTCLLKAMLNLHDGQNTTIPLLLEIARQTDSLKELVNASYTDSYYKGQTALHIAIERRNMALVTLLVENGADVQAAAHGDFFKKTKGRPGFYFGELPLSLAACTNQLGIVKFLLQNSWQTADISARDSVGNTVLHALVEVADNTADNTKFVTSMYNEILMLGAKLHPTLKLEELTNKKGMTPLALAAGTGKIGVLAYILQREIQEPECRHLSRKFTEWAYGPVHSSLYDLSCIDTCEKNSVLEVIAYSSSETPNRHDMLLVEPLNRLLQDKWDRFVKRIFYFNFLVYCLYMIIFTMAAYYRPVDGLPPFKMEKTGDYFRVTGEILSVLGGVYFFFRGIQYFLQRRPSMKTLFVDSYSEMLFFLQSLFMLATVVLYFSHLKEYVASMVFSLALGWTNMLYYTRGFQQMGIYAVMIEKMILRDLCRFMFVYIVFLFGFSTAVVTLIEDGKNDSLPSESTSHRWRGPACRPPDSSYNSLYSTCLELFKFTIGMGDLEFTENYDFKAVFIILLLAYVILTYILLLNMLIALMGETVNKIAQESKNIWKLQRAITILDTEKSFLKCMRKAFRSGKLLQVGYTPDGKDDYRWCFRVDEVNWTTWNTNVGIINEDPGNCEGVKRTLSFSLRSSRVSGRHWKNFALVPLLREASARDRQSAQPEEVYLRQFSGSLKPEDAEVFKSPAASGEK
Nature of the data set: TRPV1 agonist assay. The data set is classed as cell-based. On the procedure:
To examine the specificity of the test compounds, further studies were conducted on TRPV1 channels (human TRPV1 gene expressed in HEK293 cells) and TRPA1 channels (human TRPA1 gene expressed in CHO cells). The test cells were Chinese Hamster Ovary (CHO) cells or Human Embyronic Kidney (HEK) 293 cells transfected with human TRPV1 or TRPA1 cDNAs.

Setting [10] is: male rats, 30 mg/kg subcutaneously daily for 7 days.

Values joined by “and” are separate entries in the source; they are usually repeats but may differ in a detail not shown here. Identical values can stand only once. “Also recorded” adds a separate entry of the source.

This note sets out measurements from patent US20150111852A1, “1-Di(sec-butyl)-phosphinoyl-pentane (dapa-2-5) as a topical agent” (priority 2013, published 2015).

One may read the inhibition as the drop in the measured response relative to a control, in per cent.

Consider `CCCCCCCP(=O)(C(C)CC)C(C)CC` (centres unmarked) [DAPA-2-7, 1-Di(sec-butyl) phosphinoyl-heptane], for which the “systemic sensations of cold” value in [1] (higher oral doses (e.g., 5 mg or more)) was “sensations of cold on other body surfaces”. The “distribution of the sensation (throat vs chest)” value (from here on “distribution … (throat vs chest)”) in data set [1] is listed as “sensations of cold in the chest; also recorded: spreads behind the sternum, into the chest”. Moreover, in data set [2], the “mutagenic in the Ames test” value is reported as “Neither of these compounds was mutagenic”. For the same molecule, in [3] (setting [10]), the “differences in body or organ weights vs vehicle” value is “no significant differences”; the “heart and liver histology” value was “normal”. Also, the “precipitation of “ice cream headache” (Case Study 5)” value in data set [4] is listed as “Neither of the ODT precipitated a headache response”.
For `CCCCCP(=O)(C(C)CC)C(C)CC` (centres unmarked) [DAPA-2-5, 1-Di(sec-butyl)-phosphinoyl-pentane], the “DAPA-2-5 recovered from the aqueous phase” value in data set [5] was 86±2%. Moreover, the “sensation at increased dose” value in [1] (dose increased to 8 mg (per tablet)) was “burning penetrating quality to the sensation, but it was not aversive; also recorded: did not produce stinging, adverse tastes, or “icy cold” or cold discomfort”. For the same molecule, the “duration of “dynamic cool” in the oropharynx” value in [1] (in vivo) was 5 to 15 min and 10 to 15 min. Further, the “distribution … (throat vs chest)” value in data set [1] is “remained localized to the throat and upper esophagus”. The “mutagenic in the Ames test” value in data set [2] was “Neither of these compounds was mutagenic”. Besides, the “difference in organ weights or histology vs vehicle” value in [3] (male rats, via drinking water, averaged intake 41 mg/kg body weight/day for 40 days) is given as “no statistical difference”. Moreover, in [3] (rats, 20 mg/kg perioral by gavage for 7 days), the “difference in organ weights or histology vs vehicle” value is “no statistical difference”. Moreover, the “effective in reducing throat discomfort (Case Study 7)” value in data set [4] (ODT-A 1.0 mg as needed, six women) amounted to 100%. Also, in data set [4] (ODT-A 1 mg, twenty trials), the “hoarseness and loss of voice (Case Study 6)” value was “immediate relief from throat discomfort”. For the same molecule, the “choking and gagging in asthma (Case Study 4)” value in data set [4] (ODT-A 1 mg, two subjects) is “effective in controlling choking and gagging”. The “cough in cough variant asthma (Case Study 4)” value in data set [4] (ODT-A 1.5 mg, two or three tablets at a time, after a week's trial) is recorded as “completely under control”. Further, the “precipitation of “ice cream headache” (Case Study 5)” value in data set [4] is reported as “Neither of the ODT precipitated a headache response”. In addition, the “relief of hoarseness (Case Study 1)” value in data set [4] (ODT-A, 1 to 1.5 mg, person, five occasions) is recorded as “fully effective in relieving their hoarseness”. Moreover, in data set [4] (four tablets with water), the “time to disappearance of chest discomfort (Case Study 8, second person)” value was “about 10 min”. For the same molecule, the “snoring (Case Study 9)” value in [4] (tablets 2 mg before sleep) was “stopped snoring”. Besides, the “time to relief of chest discomfort (Case Study 8)” value in data set [4] (three tablets, each 1.5 mg) was not above 5 min. Further, in data set [4] (two DAPA-2-5 ODT), the “hiccups (Case Study 5)” value was “stopped within several min” and the “throat discomfort from acid reflux (Case Study 5)” value is “immediately controlled their throat discomfort from acid reflux”. For the same molecule, the “nasal congestion (Case Study 2)” value in [4] (two tablets of 1 mg or one of 1.5 mg, with viral cold) is recorded as “effective remedy”. In addition, the “ODT-C test results at higher doses” value in data set [6] is reported as “higher than 1.5 mg “penetrating cold” sensations”. In addition, the “effect on capsaicin-induced coughing” value in data set [7] is “inhibited the capsaiscin-induced coughing”. For the same molecule, the inhibition at 1000 µg/mL in data set [8] was approximately 0%. In addition, in [9], the “times less potent than DAPA-2-6 in stimulating TRPV1” value amounted to 54.
Take `CCCCCCP(=O)(C(C)C)C(C)C` [DAPA-1-6, 1-Di(isopropyl)-phosphinoyl-hexane]: in data set [1], the “distribution … (throat vs chest)” value is “sensations of cold in the chest; also recorded: spreads behind the sternum, into the chest”.
With `CCCCCCCP(=O)(C(C)C)C(C)C` [DAPA-1-7, 1-Di(isopropyl)-phosphinoyl-heptane], the “distribution … (throat vs chest)” value in data set [1] is listed as “spreads behind the sternum, into the chest”.
With `CCCCCCP(=O)(C(C)CC)C(C)CC` (centres unmarked) [DAPA-2-6, 1-Di(sec-butyl) phosphinoyl-hexane], the “distribution … (throat vs chest)” value in [1] is reported as “sensations of cold in the chest; also recorded: spreads behind the sternum, into the chest”.
